Measured values reported in US8877769B2, “Heteroaryl-substituted urea modulators of fatty acid amide hydrolase” (Janssen Pharmaceutica NV, priority 2008, dated 2014).

How the values were obtained:
[1] = biological target: T1, Rat FAAH (Rattus norvegicus, UniProt P97612); test: Assay Method 2: FAAH assay, 3H-anandamide hydrolysis in cell homogenate; type: biochemical; settings: average of results obtained, > value = solubility limit or highest concentration tested
T1 construct: expressed in transfected cells
T1 sequence (P97612 1-579): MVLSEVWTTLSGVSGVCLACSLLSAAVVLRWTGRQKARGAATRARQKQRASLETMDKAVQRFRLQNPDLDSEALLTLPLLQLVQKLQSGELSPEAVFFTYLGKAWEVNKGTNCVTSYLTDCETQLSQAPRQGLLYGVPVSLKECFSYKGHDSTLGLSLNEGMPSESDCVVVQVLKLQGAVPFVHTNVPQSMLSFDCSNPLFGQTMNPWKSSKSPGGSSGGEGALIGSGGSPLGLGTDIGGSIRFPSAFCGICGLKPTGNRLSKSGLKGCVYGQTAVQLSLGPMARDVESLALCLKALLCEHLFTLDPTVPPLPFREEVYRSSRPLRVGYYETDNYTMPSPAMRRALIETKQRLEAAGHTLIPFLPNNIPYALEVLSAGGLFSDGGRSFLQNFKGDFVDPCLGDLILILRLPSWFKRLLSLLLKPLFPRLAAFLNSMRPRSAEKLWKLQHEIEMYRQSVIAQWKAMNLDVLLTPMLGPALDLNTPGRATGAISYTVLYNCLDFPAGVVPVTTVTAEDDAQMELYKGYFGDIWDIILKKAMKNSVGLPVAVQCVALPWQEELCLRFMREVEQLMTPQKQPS
Procedure: A. Transfection of Cells with Rat FAAH
The assay mixture consisted of 50 μL of the cell homogenate, 10 μL of the test compound, and 40 μL of anandamide [1-^3H-ethanolamine] (^3H-AEA, Perkin-Elmer, 10.3 Ci/mmol), which was added last, for a final tracer concentration of 80 nM. The reaction mixture was incubated at rt for 1 h. During the incubation, 96-well Multiscreen filter plates (catalog number MAFCNOB50; Millipore, Bedford, Mass., USA) were loaded with 25 μL of activated charcoal (Multiscreen column loader, catalog number MACL09625, Millipore) and washed once with 100 μL of MeOH. […] After the 1 h incubation, 60 μL of the reaction mixture were transferred to the charcoal plates, which were then assembled on top of the DYNEX plates using Centrifuge Alignment Frames (catalog number MACF09604, Millipore). The unbound labeled ethanolamine was centrifuged through to the bottom plate (5 min at 2000 rpm), which was preloaded with the scintillant, as described above. The plates were sealed and left at rt for 1 h before counting on a Hewlett Packard TopCount.

[2] = biological target: T2, FAAH (Homo sapiens, UniProt O00519); test: Assay Method 1: FAAH assay, 3H-anandamide hydrolysis in cell homogenate
T2 sequence (O00519 1-579): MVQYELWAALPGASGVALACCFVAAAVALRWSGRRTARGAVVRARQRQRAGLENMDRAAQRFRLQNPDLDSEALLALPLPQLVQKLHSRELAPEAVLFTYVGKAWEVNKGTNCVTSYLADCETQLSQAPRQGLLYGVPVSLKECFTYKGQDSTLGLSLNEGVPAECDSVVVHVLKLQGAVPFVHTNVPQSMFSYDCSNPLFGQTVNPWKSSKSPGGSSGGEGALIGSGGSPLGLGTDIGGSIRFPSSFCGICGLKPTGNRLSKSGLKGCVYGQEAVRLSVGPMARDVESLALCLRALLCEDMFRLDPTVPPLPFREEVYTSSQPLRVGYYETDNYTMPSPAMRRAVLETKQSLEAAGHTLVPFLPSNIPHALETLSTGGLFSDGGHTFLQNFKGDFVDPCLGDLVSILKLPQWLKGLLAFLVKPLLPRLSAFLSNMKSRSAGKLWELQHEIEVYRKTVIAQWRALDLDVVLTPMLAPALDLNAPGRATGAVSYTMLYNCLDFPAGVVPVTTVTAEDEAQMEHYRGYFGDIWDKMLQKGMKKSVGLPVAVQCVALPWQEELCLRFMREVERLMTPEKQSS

SMILES	IC50 [1]	IC50 [2]
O=C(Nc1noc2ncccc12)N1CCN(Cc2cccc(Oc3ccccc3)c2)CC1 [Example 27, 4-(3-Phenoxy-benzyl)-piperazine-1-carboxylic acid isoxazolo[5,4-b]pyridin-3-ylamide]	> 10000 nM	> 10000 nM
O=C(Nc1noc2ncccc12)N1CCN(Cc2cccc(Oc3cccc(Cl)c3)c2)CC1 [Example 23, 4-[3-(3-Chloro-phenoxy)-benzyl]-piperazine-1-carboxylic acid isoxazolo[5,4-b]pyridin-3-ylamide]	300 nM	220 nM
O=C(Nc1noc2ncccc12)N1CCN(Cc2ccc3c(c2)OC(F)(F)O3)CC1 [Example 5, 4-(2,2-Difluoro-benzo[1,3]dioxol-5-ylmethyl)-piperazine-1-carboxylic acid isoxazolo[5,4-b]pyridin-3-ylamide]	8000 nM	1600 nM
O=C(Nc1noc2ncccc12)N1CCN(Cc2cccc(Oc3ccccc3Cl)c2)CC1 [Example 8, 4-[3-(2-Chloro-phenoxy)-benzyl]-piperazine-1-carboxylic acid isoxazolo[5,4-b]pyridin-3-ylamide]	8000 nM	1500 nM
N#Cc1cccc(Oc2cccc(CN3CCN(C(=O)Nc4noc5ncccc45)CC3)c2)c1 [Example 16, 4-[3-(3-Cyano-phenoxy)-benzyl]-piperazine-1-carboxylic acid isoxazolo[5,4-b]pyridin-3-ylamide]	6000 nM	2000 nM
O=C(Nc1noc2ncccc12)N1CCN(Cc2ccc3c(c2)OCO3)CC1 [Example 7, 4-Benzo[1,3]dioxol-5-ylmethyl-piperazine-1-carboxylic acid isoxazolo[5,4-b]pyridin-3-ylamide]	> 10000 nM	> 10000 nM
O=C(Nc1cnc2cccnn12)N1CCN(Cc2ccc3c(c2)OC(F)(F)O3)CC1 [Example 3, 4-(2,2-Difluoro-benzo[1,3]dioxol-5-ylmethyl)-piperazine-1-carboxylic acid imidazo[1,2-b]pyridazin-3-ylamide]	160 nM	230 nM
O=C(Nc1cnc2cccnn12)N1CCN(Cc2ccc(OC(F)(F)F)c(Cl)c2)CC1 [Example 4, 4-(3-Chloro-4-trifluoromethoxy-benzyl)-piperazine-1-carboxylic acid imidazo[1,2-b]pyridazin-3-ylamide]	30 nM	54 nM
O=C(Nc1noc2ncccc12)N1CCN(Cc2cccc(Oc3ccc(SC(F)(F)F)cc3)c2)CC1 [Example 17, 4-[3-(4-Trifluoromethylsulfanyl-phenoxy)-benzyl]-piperazine-1-carboxylic acid isoxazolo[5,4-b]pyridin-3-ylamide]	180 nM	470 nM
O=C(Nc1noc2ncccc12)N1CCN(Cc2cccc(Oc3cccc(C(F)(F)F)c3)c2)CC1 [Example 15, 4-[3-(3-Trifluoromethyl-phenoxy)-benzyl]-piperazine-1-carboxylic acid isoxazolo[5,4-b]pyridin-3-ylamide]	860 nM	300 nM
O=C(Nc1noc2ncccc12)N1CCN(Cc2cccc(Oc3ccc(OCC(F)(F)F)cc3)c2)CC1 [Example 33, 4-{3-[4-(2,2,2-Trifluoro-ethoxy)-phenoxy]-benzyl}-piperazine-1-carboxylic acid isoxazolo[5,4-b]pyridin-3-ylamide]	200 nM	200 nM

More lines, now with the values ahead:

IC50 [1]	IC50 [2]	SMILES
230 nM	230 nM	O=C(Nc1cnc2cc[nH]c2c1)N1CCN(Cc2ccc3c(c2)OC(F)(F)O3)CC1 [Example 45, 4-(2,2-Difluoro-benzo[1,3]dioxol-5-ylmethyl)-piperazine-1-carboxylic acid (1H-pyrrolo[3,2-b]pyridin-6-yl)-amide]
350 nM	6000 nM	O=C(Nc1cccn2ccnc12)N1CCN(Cc2ccc3c(c2)OC(F)(F)O3)CC1 [Example 54, 4-(2,2-Difluoro-benzo[1,3]dioxol-5-ylmethyl)-piperazine-1-carboxylic acid imidazo[1,2-a]pyridin-8-ylamide]
95 nM	26 nM	Cc1nn(C)c2ncc(NC(=O)N3CCN(Cc4cccc(Oc5ccc(Cl)cc5)c4)CC3)cc12 [Example 64, 4-[3-(4-Chloro-phenoxy)-benzyl]-piperazine-1-carboxylic acid (1,3-dimethyl-1H-pyrazolo[3,4-b]pyridin-5-yl)-amide]
3 nM	3 nM	O=C(Nc1cnc2[nH]ccc2c1)N1CCC(Cc2ccc(Cl)c(Cl)c2)CC1 [Example 81, 4-(3,4-Dichloro-benzyl)-piperidine-1-carboxylic acid (1H-pyrrolo[2,3-b]pyridin-5-yl)-amide]
2000 nM	2000 nM	O=C(NC1=NS(=O)(=O)c2ccccc21)N1CCN(Cc2cccc(Oc3ccc(Cl)cc3)c2)CC1 [Example 59, 4-[3-(4-Chloro-phenoxy)-benzyl]-piperazine-1-carboxylic acid (1,1-dioxo-1H-λ^6-benzo[d]isothiazol-3-yl)-amide]
1600 nM	1400 nM	O=C(Nc1ccn2ccnc2c1)N1CCN(Cc2ccc3c(c2)OC(F)(F)O3)CC1 [Example 73, 4-(2,2-Difluoro-benzo[1,3]dioxol-5-ylmethyl)-piperazine-1-carboxylic acid imidazo[1,2-a]pyridin-7-ylamide]
> 10000 nM	> 10000 nM	O=C(Nc1cn2ccccc2n1)N1CCN(Cc2ccc(OC(F)(F)F)c(Cl)c2)CC1 [Example 56, 4-(3-Chloro-4-trifluoromethoxy-benzyl)-piperazine-1-carboxylic acid imidazo[1,2-a]pyridin-2-ylamide]
> 10000 nM	> 10000 nM	O=C(Nc1cn2ccccc2n1)N1CCN(Cc2cccc(Oc3ccc(Cl)cc3)c2)CC1 [Example 55, 4-[3-(4-Chloro-phenoxy)-benzyl]-piperazine-1-carboxylic acid imidazo[1,2-a]pyridin-2-ylamide]
180 nM	3 nM	O=C(Nc1cnc2[nH]ccc2c1)N1CCN(Cc2cccc(Oc3ccc(C(F)(F)F)nn3)c2)CC1 [Example 80, 4-[3-(6-Trifluoromethyl-pyridazin-3-yloxy)-benzyl]-piperazine-1-carboxylic acid (1H-pyrrolo[2,3-b]pyridin-5-yl)-amide]
300 nM	150 nM	O=C(Nc1noc2ncccc12)N1CCN(Cc2cccc(Oc3cccc(Br)c3)c2)CC1 [Example 35, 4-[3-(3-Bromo-phenoxy)-benzyl]-piperazine-1-carboxylic acid isoxazolo[5,4-b]pyridin-3-ylamide]
7000 nM	27 nM	O=C(Nc1ccc2ncoc2c1)N1CCN(Cc2cccc(Oc3ccc(Cl)cc3)c2)CC1 [Example 46, 4-[3-(4-Chloro-phenoxy)-benzyl]-piperazine-1-carboxylic acid benzooxazol-6-ylamide]
280 nM	73 nM	O=C(Nc1nocc1Cl)N1CCN(Cc2ccc3c(c2)OC(F)(F)O3)CC1 [Example 86, 4-(2,2-Difluoro-benzo[1,3]dioxol-5-ylmethyl)-piperazine-1-carboxylic acid (4-chloro-isoxazol-3-yl)-amide]
800 nM	900 nM	O=C(Nc1cnc2ccccn12)N1CCC(Cc2ccc(Cl)c(Cl)c2)CC1 [Example 82, 4-(3,4-Dichlorobenzyl)-N-imidazo[1,2-a]pyridin-3-ylpiperidine-1-carboxamide]
11 nM	6 nM	O=C(Nc1noc2cnccc12)N1CCN(Cc2ccc3c(c2)OC(F)(F)O3)CC1 [Example 39, 4-(2,2-Difluoro-benzo[1,3]dioxol-5-ylmethyl)-piperazine-1-carboxylic acid isoxazolo[5,4-c]pyridin-3-ylamide]
